Experiments:
Assay type in all cases: cell-based
hVR1 [1] = molecular target: T1, hVR1 (Homo sapiens, UniProt Q8NER1); test: Calcium uptake assay (FLIPR), inhibition of low pH (proton)-induced calcium influx; settings: agonist protons, low pH solution pH 5.7; cells expressing hVR1
T1 construct: R710-07 (T-REx host cell line); host or cells: T-REx System cell line, called 'human keratinocyte cell line' and 'HEK 293 cells'
Description: (§1) Functional activity of compounds against the VR1 receptor was determined by measuring changes in intracellular calcium in HEK 293 cells expressing hVR1. Compounds were examined for their ability to inhibit agonist-induced calcium influx. Relative levels of [Ca^2+] were monitored in a 96-well format using a calcium-sensitive fluorescence dye and a FLIPR TETRA, Molecular Devices.
(§2) Cells that express high levels of VR1 were obtained by generation of a cell line from human keratinocytes with heterologous expression of VR1 under control of an inducible promoter. Specifically, cells expressing human VR1 under the control of the human cytomegalovirus immediate-early (CMV) promoter and two tetracycline operator 2 (TetO2) sites were made using the T-REx System (Invitrogen, Carlsbad, Calif., USA). Details and methods concerning this system are published (Hum. Gene Ther. 9, pp. 1939-1950, 1998; Annu. Rev. Microbiol. 48, pp. 345-369, 1994; Mol. Biol. 169, pp. 707-'721, 1983). Human VR1 was subcloned into the T-REx System pcDNA5/TO vector (Invitrogen Cat# V1033-20) which was transfected into the T-REx System human keratinocyte cell line (Invitrogen Cat# R710-07) from which a stable cell line was established which expresses VR1 after induction by exposure to tetracycline or doxycycline (Hum. Gene Ther. 9, pp. 1939-1950, 1998; instructions that come with purchase of products noted above). Cells were maintained in a CO2 incubator (5% CO2) at 37° C. in culture medium containing DMEM with phenol red (Mediatech Cat #: 15-017-CV) supplemented with 10% heat-inactivated Fetal Bovine Serum, 5% Penicillin-streptomycin (Mediatech Cat #: 30-002-CI), 5% Glutamax® (L-Alanyl-L-Glutamine, Mediatech Cat #: 25-015-CI), 200 μg/ml hygromycin (Mediatech #:30-240-CR), 0.5 μg/ml blasticidin (Invitrogen #46-1120)).
For assay preparation, cells expressing human VR1 as described above were plated in 96-well plates (Becton Dickinson [BD] poly-D-lysine coated 96-well plates, cat #356692) at 55,000 cells per well in culture media (described above) that also contained 1 ug/ml doxycycline. Plated cells were then placed in an incubator (5% CO2) and incubated for 20-26 hours at 37° C., until the cells had grown to near confluency. Media was then aspirated from cells and 50 uL of dye-containing buffer (from Molecular Devices FLIPR Calcium 4 Assay kit, cat# R8141) was added to each well. Cells were then left in the dark at room temperature for 1.5-2 hours. Cell plates were then placed in the FLIPR TETRA (Molecular Devices, CA, USA). Test compounds and agonists were added to wells using the liquid handling capability of the FLIPR TETRA. Calcium responses of the cells were monitored by fluorescence readout of dye signal. Test compounds in saline (130 mM NaCl, 17 g/L sucrose, 1.8 g/L glucose, 8.8 mM HEPES, 3 mM KCl, 0.60 mM MgCl, 1.0 mM CaCl2; adjust to pH 7.4 using NaOH; 0.03% BSA added on the day of the experiment), or vehicle control in saline, were pre-incubated at the desired final concentrations in the dark at room temperature for 2 or 30 minutes with cells already containing the above mentioned dye buffer (dye solution was diluted 1:1 in culture wells with saline containing 2× the final concentration of test compound). Compound IC50 experiments were run using an agonist concentration at or near the EC50 of the agonist. […] Another agonist was protons via a low pH solution (saline solution described above plus 10 mM citric acid buffered to pH 5.7 with HCl instead of buffering to a neutral pH with NaOH as done for normal saline). Compounds were tested at various concentration ranges, depending upon potency of compound. After the 2 minute or 30 minute compound pre-treatment, treatment solution was then added to cells by adding a volume of treatment solution equal to the pretreatment solution already on the cells. […]

hVR1 [2] = molecular target: T1, hVR1; test: Determination of pA2 values against capsaicin stimulation (Ca2+ imaging, Schild analysis)
Description: Changes in the fluorescence signal (λex=470-495 nm, λem=515-575 nm) are monitored throughout the experiment before agonist addition and for at least 2 min after agonist addition (enough time for the fluorescence response to reach and then decline from the absolute maximum, agonist-induced signal attained). For each well, final relative fluorescence units (RFUs) are calculated as the difference between the maximum fluorescence signal obtained in the experiment after agonist addition and the signal level seen at baseline before agonist, but after antagonist, addition (the absolute minimum level of fluorescence signal observed in the 10 seconds prior to agonist addition). […] Data are fit to an ideal curve utilizing the 4-parameter sigmoid curve-fit function in GraphPad Prism software (version 4, GraphPad Software, Inc., San Diego, Calif., USA) from which an EC50 value is obtained. […] For each antagonist, at least three concentrations are tested. Dose Ratio values are then used to make a standard Schild plot—log [antagonist concentration] plotted against log [DR−1], see Kenakin reference above for theoretical background and method. A linear regression curve-fit is then performed on these plotted points. […] If these conditions are not met, then the antagonist is rerun in a pA2 assay using different antagonist concentrations until the above conditions are met.

hVR1 [3] = molecular target: T1, hVR1; test: Calcium uptake assay (FLIPR), inhibition of capsaicin-induced calcium influx
Description: as §1, §2
For assay preparation, cells expressing human VR1 as described above were plated in 96-well plates (Becton Dickinson [BD] poly-D-lysine coated 96-well plates, cat #356692) at 55,000 cells per well in culture media (described above) that also contained 1 ug/ml doxycycline. Plated cells were then placed in an incubator (5% CO2) and incubated for 20-26 hours at 37° C., until the cells had grown to near confluency. Media was then aspirated from cells and 50 uL of dye-containing buffer (from Molecular Devices FLIPR Calcium 4 Assay kit, cat# R8141) was added to each well. Cells were then left in the dark at room temperature for 1.5-2 hours. Cell plates were then placed in the FLIPR TETRA (Molecular Devices, CA, USA). Test compounds and agonists were added to wells using the liquid handling capability of the FLIPR TETRA. Calcium responses of the cells were monitored by fluorescence readout of dye signal. Test compounds in saline (130 mM NaCl, 17 g/L sucrose, 1.8 g/L glucose, 8.8 mM HEPES, 3 mM KCl, 0.60 mM MgCl, 1.0 mM CaCl2; adjust to pH 7.4 using NaOH; 0.03% BSA added on the day of the experiment), or vehicle control in saline, were pre-incubated at the desired final concentrations in the dark at room temperature for 2 or 30 minutes with cells already containing the above mentioned dye buffer (dye solution was diluted 1:1 in culture wells with saline containing 2× the final concentration of test compound). […] Another agonist was protons via a low pH solution (saline solution described above plus 10 mM citric acid buffered to pH 5.7 with HCl instead of buffering to a neutral pH with NaOH as done for normal saline). Compounds were tested at various concentration ranges, depending upon potency of compound. After the 2 minute or 30 minute compound pre-treatment, treatment solution was then added to cells by adding a volume of treatment solution equal to the pretreatment solution already on the cells.

T1 sequence (Q8NER1 whole entry): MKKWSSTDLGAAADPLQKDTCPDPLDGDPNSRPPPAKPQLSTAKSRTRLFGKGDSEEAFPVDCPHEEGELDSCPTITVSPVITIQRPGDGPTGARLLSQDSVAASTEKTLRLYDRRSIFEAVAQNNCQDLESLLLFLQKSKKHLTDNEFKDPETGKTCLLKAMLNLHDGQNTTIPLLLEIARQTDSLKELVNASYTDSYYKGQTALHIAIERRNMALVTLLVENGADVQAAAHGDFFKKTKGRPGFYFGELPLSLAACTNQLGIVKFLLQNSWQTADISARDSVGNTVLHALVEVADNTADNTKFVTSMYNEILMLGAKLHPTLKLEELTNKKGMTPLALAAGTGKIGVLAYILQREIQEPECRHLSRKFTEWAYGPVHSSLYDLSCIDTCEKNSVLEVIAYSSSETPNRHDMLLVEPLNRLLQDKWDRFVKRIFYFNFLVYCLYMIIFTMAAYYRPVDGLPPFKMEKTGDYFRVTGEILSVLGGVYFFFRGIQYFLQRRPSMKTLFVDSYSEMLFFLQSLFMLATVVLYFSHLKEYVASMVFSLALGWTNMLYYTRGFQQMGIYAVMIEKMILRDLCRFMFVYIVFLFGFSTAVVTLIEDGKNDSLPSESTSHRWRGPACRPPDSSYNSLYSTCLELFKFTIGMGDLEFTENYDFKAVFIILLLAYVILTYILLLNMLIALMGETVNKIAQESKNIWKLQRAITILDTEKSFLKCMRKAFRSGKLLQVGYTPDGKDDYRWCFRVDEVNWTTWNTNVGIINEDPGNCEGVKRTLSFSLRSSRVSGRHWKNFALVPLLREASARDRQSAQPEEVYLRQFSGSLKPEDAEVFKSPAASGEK

IC50 (hVR1 [1]) | Kb (hVR1 [2]) | IC50 (hVR1 [3]) | inhibition at 1 µM (hVR1 [3]) | Compound
9 nM | 5.91 nM | 2 nM |  | CC(=O)N1CCc2ccc(NC(=O)[C@@H]3CCc4nc(C(C)(C)C(F)(F)F)ccc4C3)cc21 [Compound 23, (R)-2-(2,2,2-Trifluoro-1,1-dimethyl-ethyl)-5,6,7,8-tetrahydro-quinoline-6-carboxylic acid (1-acetyl-2,3-dihydro-1H-indol-6-yl)-amide]
 |  | 310 nM |  | C[C@@H](NC(=O)[C@@H]1CCc2nc(C(C)(C)C(F)(F)F)ccc2C1)c1cnn2c1OCCC2 [Compound 20, (R)-2-(2,2,2-Trifluoro-1,1-dimethyl-ethyl)-5,6,7,8-tetrahydro-quinoline-6-carboxylic acid [(R)-1-(6,7-dihydro-5H-pyrazolo[5,1-b][1,3]oxazin-3-yl)-ethyl]-amide]
240 nM |  | 36 nM |  | CC(C)(C)c1ccc2c(c1)OCC(C(=O)NCc1ccnc3ccccc13)O2 (centres unmarked) [Compound 1, 6-tert-butyl-N-(quinolin-4-ylmethyl)-2,3-dihydrobenzo[b][1,4]dioxine-2-carboxamide]
 | 188 nM | 150 nM |  | C[C@@H](NC(=O)[C@@H]1COc2cc(C(F)(F)F)ccc2O1)c1ccc2[nH]ncc2c1 [Compound 25, (S)-6-Trifluoromethyl-2,3-dihydro-benzo[1,4]dioxine-2-carboxylic acid 1[(R)-1-(1H-indazol-5-yl)-ethyl]-amide]
143 nM |  |  |  | O=C(NCc1ccnc2ccccc12)C1=Cc2cc(Cl)ccc2OC1 [Compound 2, 6-Chloro-2H-chromene-3-carboxylic acid (Quinolin-4-ylmethyl)-amide]
 |  | 820 nM | 54% | CC(NC(=O)[C@@H]1COc2cc(C(F)(F)F)ccc2O1)c1ccc2[nH]ncc2c1 (stereo partly drawn) [Compound 14, (S)-6-Trifluoromethyl-2,3-dihydro-benzo[1,4]dioxine-2-carboxylic acid [1-(1H-indazol-5-yl)-ethyl]-amide]
571 nM | 422 nM |  |  | O=C(Nc1cnc2sc(CO)nc2c1)[C@H]1COc2cc(C(F)(F)F)ccc2O1 [Compound 16, (R)-6-Trifluoromethyl-2,3-dihydro-benzo[1,4]dioxine-2-carboxylic acid (2-hydroxymethyl-thiazolo[5,4-b]pyridin-6-yl)-amide]
128 nM |  |  |  | O=C(NCc1ccnc2ccccc12)C1=Cc2cc(Br)ccc2OC1 [Compound 3, 6-Bromo-2H-chromene-3-carboxylic acid (quinolin-4-ylmethyl)-amide]
 | 59.5 nM | 76 nM |  | C[C@@H](NC(=O)[C@H]1CCc2nc(C(C)(C)C(F)(F)F)ccc2C1)c1cnn2c1OCCC2 [Compound 22, (S)—N—((R)-1-(6,7-dihydro-5H-pyrazolo[5,1-b][1,3]oxazin-3-yl)ethyl)-2-(1,1,1-trifluoro-2-methylpropan-2-yl)-5,6,7,8-tetrahydroquinoline-6-carboxamide]
 | 37.4 nM | 64 nM |  | CC(NC(=O)[C@H]1COc2cc(C(F)(F)F)ccc2O1)c1ccc2[nH]ncc2c1 (stereo partly drawn) [Compound 13, (R)-6-Trifluoromethyl-2,3-dihydro-benzo[1,4]dioxine-2-carboxylic acid [1-(1H-indazol-5-yl)-ethyl]-amide]
108 nM |  |  |  | O=C(NCc1ccnc2ccccc12)C1=Cc2cc(OC(F)(F)F)ccc2OC1 [Compound 4, 6-Trifluoromethoxy-2H-chromene-3-carboxylic acid (quinolin-4-ylmethyl)-amide]
121 nM | 69.2 nM |  |  | CC1(C(=O)Nc2cnc3sc(CO)nc3c2)CCc2nc(C(C)(C)C(F)(F)F)ccc2C1 (centres unmarked) [Compound 24, 6-Methyl-2-(2,2,2-trifluoro-1,1-dimethyl-ethyl)-5,6,7,8-tetrahydro-quinoline-6-carboxylic acid (2-hydroxymethyl-thiazolo[5,4-b]pyridin-6-yl)-amide]
 |  | 140 nM |  | O=C(Nc1cnc2c(c1)COCC2)[C@H]1COc2cc(C(F)(F)F)ccc2O1 [Compound 17, (R)-6-Trifluoromethyl-2,3-dihydro-benzo[1,4]dioxine-2-carboxylic acid (7,8-dihydro-5H-pyrano[4,3-b]pyridin-3-yl)-amide]
 | 4.32 nM | 8 nM |  | CC(NC(=O)C1CCc2nc(C(C)(C)C(F)(F)F)ccc2C1)c1ccc2[nH]ncc2c1 (centres unmarked) [Compound 10, 2-(2,2,2-Trifluoro-1,1-dimethyl-ethyl)-5,6,7,8-tetrahydro-quinoline-6-carboxylic acid [1-(1H-indazol-5-yl)-ethyl]-amide]
 |  | 103 nM |  | CC(NC(=O)[C@@H]1COc2cc(C(C)(C)C)ccc2O1)c1ccc2[nH]ncc2c1 (single isomer, unassigned) [Compound 6]
8 nM | 14.5 nM |  |  | CC(C)(C)c1ccc2c(c1)OC(C(=O)Nc1cnc3sc(CO)nc3c1)CO2 (centres unmarked) [Compound 8, 7-tert-Butyl-2,3-dihydro-benzo[1,4]dioxine-2-carboxylic acid (2-hydroxymethyl-thiazolo[5,4-b]pyridin-6-yl)-amide]
 | 22.5 nM | 93 nM |  | C[C@@H](NC(=O)[C@H]1COc2cc(C(F)(F)F)ccc2O1)c1ccc2[nH]ncc2c1 [Compound 26, (R)-6-Trifluoromethyl-2,3-dihydro-benzo[1,4]dioxine-2-carboxylic acid [(R)-1-(1H-indazol-5-yl)-ethyl]-amide]
